From patent US11857519B2, “Compounds and methods for the targeted degradation of enhancer of zeste homolog 2 polypeptide” (Arvinas Operations, Inc., priority 2016, dated 2024) come the findings set out here.

Each structure is given as a SMILES string.

The target of the experiment is T1, EZH2 (Homo sapiens, UniProt Q15910).
T1 construct: Protocol of the Cellular Assay of Target Protein Degradation (VCaP Cells, ELISA); endogenous in cells; host or cells: VCaP cells
T1 sequence (Q15910 whole entry): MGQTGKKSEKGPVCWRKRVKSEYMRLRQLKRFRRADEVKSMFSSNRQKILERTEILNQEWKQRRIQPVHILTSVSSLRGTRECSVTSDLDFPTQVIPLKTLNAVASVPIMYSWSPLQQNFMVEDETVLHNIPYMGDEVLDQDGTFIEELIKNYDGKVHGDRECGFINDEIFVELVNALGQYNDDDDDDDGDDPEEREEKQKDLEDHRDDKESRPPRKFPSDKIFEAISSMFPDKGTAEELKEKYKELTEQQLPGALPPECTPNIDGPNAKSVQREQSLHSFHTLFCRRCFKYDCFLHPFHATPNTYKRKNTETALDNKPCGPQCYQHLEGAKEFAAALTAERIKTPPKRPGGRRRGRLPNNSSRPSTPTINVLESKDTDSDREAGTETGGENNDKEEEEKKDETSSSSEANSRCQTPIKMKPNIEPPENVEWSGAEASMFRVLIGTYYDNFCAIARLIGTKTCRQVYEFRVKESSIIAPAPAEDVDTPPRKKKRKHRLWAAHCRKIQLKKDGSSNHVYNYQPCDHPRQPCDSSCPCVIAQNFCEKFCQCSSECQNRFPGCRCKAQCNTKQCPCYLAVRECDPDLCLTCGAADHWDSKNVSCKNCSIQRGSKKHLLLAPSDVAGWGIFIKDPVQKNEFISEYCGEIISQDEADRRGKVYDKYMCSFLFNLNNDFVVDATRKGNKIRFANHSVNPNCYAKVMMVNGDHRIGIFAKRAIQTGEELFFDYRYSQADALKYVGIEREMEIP
T1 sequence (O75530 whole entry partner): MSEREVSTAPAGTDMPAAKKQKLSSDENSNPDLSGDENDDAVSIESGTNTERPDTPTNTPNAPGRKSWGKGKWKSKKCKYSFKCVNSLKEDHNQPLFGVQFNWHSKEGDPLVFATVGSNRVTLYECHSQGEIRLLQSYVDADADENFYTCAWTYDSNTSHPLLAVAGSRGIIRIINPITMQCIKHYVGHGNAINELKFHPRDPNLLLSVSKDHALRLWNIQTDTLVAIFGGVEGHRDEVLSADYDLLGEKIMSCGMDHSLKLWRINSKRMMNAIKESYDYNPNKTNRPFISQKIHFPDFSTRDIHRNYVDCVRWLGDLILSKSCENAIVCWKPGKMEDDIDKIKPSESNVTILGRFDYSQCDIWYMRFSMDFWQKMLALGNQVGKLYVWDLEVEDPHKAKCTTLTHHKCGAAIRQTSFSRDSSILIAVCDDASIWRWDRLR
T1 sequence (Q15022 whole entry partner): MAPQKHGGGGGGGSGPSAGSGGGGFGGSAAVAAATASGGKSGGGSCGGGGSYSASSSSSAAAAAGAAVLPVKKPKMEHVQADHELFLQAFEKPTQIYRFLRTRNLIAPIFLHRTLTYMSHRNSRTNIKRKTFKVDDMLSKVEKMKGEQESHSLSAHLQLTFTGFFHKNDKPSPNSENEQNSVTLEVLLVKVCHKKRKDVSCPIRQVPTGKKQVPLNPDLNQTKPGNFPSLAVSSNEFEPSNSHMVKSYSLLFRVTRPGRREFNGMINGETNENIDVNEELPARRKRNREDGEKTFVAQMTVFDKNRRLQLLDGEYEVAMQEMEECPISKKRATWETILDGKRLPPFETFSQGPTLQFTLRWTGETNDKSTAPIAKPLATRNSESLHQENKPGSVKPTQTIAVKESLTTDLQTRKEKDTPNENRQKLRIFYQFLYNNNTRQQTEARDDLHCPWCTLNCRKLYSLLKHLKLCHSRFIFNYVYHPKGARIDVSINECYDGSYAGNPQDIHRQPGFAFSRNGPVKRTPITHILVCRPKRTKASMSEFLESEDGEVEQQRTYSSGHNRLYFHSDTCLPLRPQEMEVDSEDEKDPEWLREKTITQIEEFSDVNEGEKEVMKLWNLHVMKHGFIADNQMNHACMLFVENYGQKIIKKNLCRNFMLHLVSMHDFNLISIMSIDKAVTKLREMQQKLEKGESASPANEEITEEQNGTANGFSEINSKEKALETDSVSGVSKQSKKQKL
Briefly: Cellular assay of target protein degradation (VCaP cells, ELISA). The experiment is classed as cell-based. To be noted: 4 hours, protein degradation range at indicated concentration (relative to DMSO control). On the procedure: Protocol of the Cellular Assay of Target Protein Degradation (VCaP Cells, ELISA).
For detection Cell Signaling PathScan Sandwich ELISA Catalog #12850 Lot 11 was used. VCaP cells were cultured in ATCC DMEM+ATCC FBS and plated 40,000/well 100 μl/well in RPMI P/S with 5% CSS Omega (bovine) serum into a 96 well plate. The cells were grown for a minimum of 3 days, dosed with compounds in 0.1% DMSO (diluted with 5% CSS) and incubated with aspiration for 4 hours. 100 μl of 1× Cell Signaling lysis buffer #9803 (36 mL dH2O+4 mL Cell Signaling lysis buffer) was added. The incubation was placed on cold room shaker for 10 minutes at speed 8-9. 5 μl to 100 μL of Diluent was transferred to ELISA plate (0.15 μg/mL−0.075 μg/mL) and stored at 4° C. overnight on cold room shaker speed 5 (gentle swirl) and then shaken next morning at 37° C. for 30 minutes. The preparation was washed 4×200 μl with ELISA wash buffer and aspirated with eight-channel aspirator. 100 μl/well of target protein detection antibody was added after, which the preparation was covered and shaken at 37° C. for 1 hour. 100 μl TMB was added, and the mixture was shaken for 5 min while under observation. When TMB turned light blue, 100 μl of Stop solution was added, and the mixture was shaken and read at 450 nm. Also read at 562 nm for background subtraction.
Turning to `CCN(c1cc(-c2ccc(OCCOCCOCCOCCOCCOCCOCCOCCOCCNc3cccc4c3C(=O)N(C3CCC(=O)NC3=O)C4=O)cc2)cc(C(=O)NCc2c(C)cc(C)[nH]c2=O)c1C)C1CCOCC1` (stereo not drawn) [Compound 23, N-[(4,6-dimethyl-2-oxo-1,2-dihydropyridin-3-yl)methyl]-5-[4-({l-[2-(2,6-dioxopiperidin-3-yl)-1,3-dioxo-2,3-dihydro-1H-isoindol-4-yl]-4,7,10,13,16,19,22,25-octaoxa-1-azaheptacosan-27-yl}oxy)phenyl]-3-[ethyl(oxan-4-yl)amino]-2-methylbenzamide], the “percent target protein degradation class” value is “B (B = degradation between 30% and 60%)”.

With `CCN(c1cc(-c2ccccc2OCCOCCOCCOCCOCCOCCNc2cccc3c2C(=O)N(C2CCC(=O)NC2=O)C3=O)cc(C(=O)NCc2c(C)cc(C)[nH]c2=O)c1C)C1CCOCC1` (stereo not shown) [Compound 25, N-[(4,6-dimethyl-2-oxo-1,2-dihydropyridin-3-yl)methyl]-5-[2-({1-[2-(2,6-dioxopiperidin-3-yl)-1,3-dioxo-2,3-dihydro-1H-isoindol-4-yl]-4,7,10,13,16-pentaoxa-1-azaoctadecan-18-yl}oxy)phenyl]-3-[ethyl(oxan-4-yl)amino]-2-methylbenzamide], the “percent target protein degradation class” value was “B (B = degradation between 30% and 60%)”.

As for `CCN(c1cc(-c2ccc(OCCOCCOCCOc3ccc(-c4csc([C@@H]5CCCN5C(=O)[C@@H](NC(=O)[C@H](C)NC)C5CCCCC5)n4)c4ccccc34)cc2)cc(C(=O)NCc2c(C)cc(C)[nH]c2=O)c1C)C1CCOCC1` [Compound 28, 5-{4-[2-(2-{2-[(4-{2-[(2S)-1-[(2S)-2-cyclohexyl-2-[(2S)-2-(methylamino)propanamido]acetyl]pyrrolidin-2-yl]-1,3-thiazol-4-yl}naphthalen-1-yl)oxy]ethoxy}ethoxy)ethoxy]phenyl}-N-[(4,6-dimethyl-2-oxo-1,2-dihydropyridin-3-yl)methyl]-3-[ethyl(oxan-4-yl)amino]-2-methylbenzamide], the “percent target protein degradation class” value was “B (B = degradation between 30% and 60%)”.

In the case of `CCN(c1cc(-c2ccc(OCCOCCOCCOCCOCCOc3ccc(-c4csc([C@@H]5CCCN5C(=O)[C@@H](NC(=O)[C@H](C)NC)C5CCCCC5)n4)c4ccccc34)cc2)cc(C(=O)NCc2c(C)cc(C)[nH]c2=O)c1C)C1CCOCC1` [Compound 30, 5-(4-{[1-(4-{2-[(2S)-1-[(2S)-2-cyclohexyl-2-[(2S)-2-(methylamino)propanamido]acetyl]pyrrolidin-2-yl]-1,3-thiazol-4-yl}naphthalen-1-yl)-1,4,7,10,13-pentaoxapentadecan-15-yl]oxy}phenyl)-N-[(4,6-dimethyl-2-oxo-1,2-dihydropyridin-3-yl)methyl]-3-[ethyl(oxan-4-yl)amino]-2-methylbenzamide], the “percent target protein degradation class” value was “B (B = degradation between 30% and 60%)”.

In the case of `CCN(c1cc(-c2ccc(OCCOCCOCC(=O)N[C@H](C(=O)N3C[C@H](O)C[C@H]3C(=O)NCc3ccc(-c4scnc4C)cc3)C(C)(C)C)cc2)cc(C(=O)NCc2c(C)cc(C)[nH]c2=O)c1C)C1CCOCC1` [Compound 31], the “percent target protein degradation class” value is listed as “A (A = degradation more than 60%)”.

Consider `CCN(c1cc(-c2ccc(OCCOCC(=O)N[C@H](C(=O)N3C[C@H](O)C[C@H]3C(=O)NCc3ccc(-c4scnc4C)cc3)C(C)(C)C)cc2)cc(C(=O)NCc2c(C)cc(C)[nH]c2=O)c1C)C1CCOCC1` [Compound 32, (2S,4R)-1-[(2S)-2-(2-{2-[4-(3-{[(4,6-dimethyl-2-oxo-1,2-dihydropyridin-3-yl)methyl]carbamoyl}-5-[ethyl(oxan-4-yl)amino]-4-methylphenyl)phenoxy]ethoxy}acetamido)-3,3-dimethylbutanoyl]-4-hydroxy-N-{[4-(4-methyl-1,3-thiazol-5-yl)phenyl]methyl}pyrrolidine-2-carboxamide], for which the “percent target protein degradation class” value was “B (B = degradation between 30% and 60%)”.

As to `CCN(c1cc(-c2ccc(OCCOCCOCCNc3cccc4c3C(=O)N(C3CCC(=O)NC3=O)C4=O)cc2)cc(C(=O)NCc2c(C)cc(C)[nH]c2=O)c1C)C1CCOCC1` (stereo not shown) [Compound 33, N-[(4,6-dimethyl-2-oxo-1,2-dihydropyridin-3-yl)methyl]-5-(4-{2-[2-(2-{[2-(2,6-dioxopiperidin-3-yl)-1,3-dioxo-2,3-dihydro-1H-isoindol-4-yl]amino}ethoxy)ethoxy]ethoxy}phenyl)-3-[ethyl(oxan-4-yl)amino]-2-methylbenzamide], the “percent target protein degradation class” value was “B (B = degradation between 30% and 60%)”.

`CCN(c1cc(-c2ccc(OCCOCCNc3cccc4c3C(=O)N(C3CCC(=O)NC3=O)C4=O)cc2)cc(C(=O)NCc2c(C)cc(C)[nH]c2=O)c1C)C1CCOCC1` (stereo not shown) [Compound 34, N-[(4,6-dimethyl-2-oxo-1,2-dihydropyridin-3-yl)methyl]-5-{4-[2-(2-{[2-(2,6-dioxopiperidin-3-yl)-1,3-dioxo-2,3-dihydro-1H-isoindol-4-yl]amino}ethoxy)ethoxy]phenyl}-3-[ethyl(oxan-4-yl)amino]-2-methylbenzamide]: the “percent target protein degradation class” value is “B (B = degradation between 30% and 60%)”.

Take `CCN(c1cc(-c2ccc(OCCOCCOCCOCCOCCOc3cc(-c4scnc4C)ccc3CNC(=O)[C@@H]3C[C@@H](O)CN3C(=O)[C@H](C(C)C)N3Cc4ccccc4C3=O)cc2)cc(C(=O)NCc2c(C)cc(C)[nH]c2=O)c1C)C1CCOCC1` [Compound 35, (2S,4R)-N-{[2-({1-[4-(3-{[(4,6-dimethyl-2-oxo-1,2-dihydropyridin-3-yl)methyl]carbamoyl}-5-[ethyl(oxan-4-yl)amino]-4-methylphenyl)phenyl]-1,4,7,10,13-pentaoxapentadecan-15-yl}oxy)-4-(4-methyl-1,3-thiazol-5-yl)phenyl]methyl}-4-hydroxy-1-[(2S)-3-methyl-2-(1-oxo-2,3-dihydro-1H-isoindol-2-yl)butanoyl]pyrrolidine-2-carboxamide]: the “percent target protein degradation class” value was “B (B = degradation between 30% and 60%)”.

As to `CCN(c1cc(-c2ccc(OCCOCCOCCOCCOc3cc(-c4scnc4C)ccc3CNC(=O)[C@@H]3C[C@@H](O)CN3C(=O)[C@H](C(C)C)N3Cc4ccccc4C3=O)cc2)cc(C(=O)NCc2c(C)cc(C)[nH]c2=O)c1C)C1CCOCC1` [Compound 36, (2S,4R)-N-{[2-({1-[4-(3-{[(4,6-dimethyl-2-oxo-1,2-dihydropyridin-3-yl)methyl]carbamoyl}-5-[ethyl(oxan-4-yl)amino]-4-methylphenyl)phenyl]-1,4,7,10-tetraoxadodecan-12-yl}oxy)-4-(4-methyl-1,3-thiazol-5-yl)phenyl]methyl}-4-hydroxy-1-[(2S)-3-methyl-2-(1-oxo-2,3-dihydro-1H-isoindol-2-yl)butanoyl]pyrrolidine-2-carboxamide], the “percent target protein degradation class” value was “B (B = degradation between 30% and 60%)”.

Regarding `CCN(c1cc(-c2ccc(OCCOCCOCCOc3cc(-c4scnc4C)ccc3CNC(=O)[C@@H]3C[C@@H](O)CN3C(=O)[C@H](C(C)C)N3Cc4ccccc4C3=O)cc2)cc(C(=O)NCc2c(C)cc(C)[nH]c2=O)c1C)C1CCOCC1` [Compound 37, (2S,4R)-N-({2-[2-(2-{2-[4(3-{[(4,6-dimethyl-2-oxo-1,2-dihydropyridin-3-yl)methyl]carbamoyl}-5-[ethyl(oxan-4-yl)amino]-4-methylphenyl)phenoxy]ethoxy}ethoxy)ethoxy]-4-(4-methyl-1,3-thiazol-5-yl)phenyl}methyl)-4-hydroxy-1-[(2S)-3-methyl-2-(1-oxo-2,3-dihydro-1H-isoindol-2-yl)butanoyl]pyrrolidine-2-carboxamide], the “percent target protein degradation class” value is given as “A (A = degradation more than 60%)”.

Turning to `CCN(c1cc(-c2ccc(OCCOCCOc3cc(-c4scnc4C)ccc3CNC(=O)[C@@H]3C[C@@H](O)CN3C(=O)[C@H](C(C)C)N3Cc4ccccc4C3=O)cc2)cc(C(=O)NCc2c(C)cc(C)[nH]c2=O)c1C)C1CCOCC1` [Compound 38, (2S,4R)-N-{[2-(2-{2-[4-(3-{[(4,6-dimethyl-2-oxo-1,2-dihydropyridin-3-yl)methyl]carbamoyl}-5-[ethyl(oxan-4-yl)amino]-4-methylphenyl)phenoxy]ethoxy}ethoxy)-4-(4-methyl-1,3-thiazol-5-yl)phenyl]methyl}-4-hydroxy-1-[(2S)-3-methyl-2-(1-oxo-2,3-dihydro-1H-isoindol-2-yl)butanoyl]pyrrolidine-2-carboxamide], the “percent target protein degradation class” value was “B (B = degradation between 30% and 60%)”.

As to `CCN(c1cc(-c2ccc(OCCCOCCCOCCCOc3cc(-c4scnc4C)ccc3CNC(=O)[C@@H]3C[C@@H](O)CN3C(=O)[C@H](C(C)C)N3Cc4ccccc4C3=O)cc2)cc(C(=O)NCc2c(C)cc(C)[nH]c2=O)c1C)C1CCOCC1` [Compound 39, (2S,4R)-N-({2-[3-(3-{3-[4-(3-{[(4,6-dimethyl-2-oxo-1,2-dihydropyridin-3-yl)methyl]carbamoyl}-5-[ethyl(oxan-4-yl)amino]-4-methylphenyl)phenoxy]propoxy}propoxy)propoxy]-4-(4-methyl-1,3-thiazol-5-yl)phenyl}methyl)-4-hydroxy-1-[(2S)-3-methyl-2-(1-oxo-2,3-dihydro-1H-isoindol-2-yl)butanoyl]pyrrolidine-2-carboxamide], the “percent target protein degradation class” value was “B (B = degradation between 30% and 60%)”.
